Data: patent publication US5169850A, “N-(dialkylamino)methylene)-substituted pyrazolo(1,5-a)-pyrimidine-3-carboxamides and N-(dialkylamino)methylene-substituted-4,5-dihydropyrazolo-(1,5-a)-pyrimi dine-3-carboxamides” (American Cyanamid Company, priority 1991, dated 1992)
Several values for one entry are separate records, joined by “and”; a condition that tells them apart may be missing. Identical values can stand only once.

Legend:
[1] = Passive-Avoidance Anoxic-Induced-Amnesia Test; type: in vivo, Swiss-Webster mice; conditions: vs saline control, active if 30 percent
Source text: Another in vivo test associated with decreased neural function in mammals is the Passive-Avoidance Anoxic-Induced-Amnesia Test. This test is used to determine the attenuation of anoxic induced amnesia in mice treated with drug, as compared to saline treated control animals with no drug.
A shock-motivated, single trial, step-through passive avoidance procedure is used. Groups of 25 Swiss-Webster, middle aged mice (9 months of age) are placed singly in the front chamber of a 2-chamber box and are allowed to voluntarily cross into the rear chamber. As soon as the mouse enters the rear chamber, a door automatically traps the animal and a mild electric shock (0.4 mA for 4 seconds) is delivered to its feet. Following the foot shock, the mice are initially placed in an anoxic environment (0 percent oxygen) for 12 seconds, which quickly induces unconsciousness. They are then placed in a hypoxic environment (15 percent oxygen) for four minutes which prolongs the oxygen deprived state, maintaining unconsciousness. All testing is performed 24 hours later, and in all cases the mice appear fully recovered from the previous anoxic/hypoxic treatment. All test compounds are administered intraperitoneally at a dose of 5-200 mg/kg, 30 minutes prior to training and testing. Control animals are injected intraperitoneally only with saline at 0.01 cc/g of body weight.
The latency to enter the rear chamber is recorded for both training and testing. Presumably, the more the animal remembers being shocked, the greater it will inhibit going into the rear chamber and the higher will be its latency to re-enter. An improvement of 30 percent over saline control scores is considered active.

[2] = tested on: Brain-Specific Receptors of Rats (3H-benzodiazepine binding); assay: Inhibition of the binding of 3H-benzodiazepine to brain-specific receptors of rats; parameters: species or system rat (male albino, Wistar strain); conditions: 3H-diazepam or 3H-flunitrazepam, rat cortex P2 fraction, pH 7.4, 30 min in ice; test concentration not given
Source text: Still another test utilized for the determination of anxiolytic activity is the measurement of the ability of a test compound to inhibit the binding of tritiated benzodiazepines to brain-specific receptors of mammals. A modification of the method described by R. F. Squires, et al, Nature, 266, No. 21:732 (April, 1977) and H. Mosler, et al, Science, 198:849 (1977) was employed.
Male albino rats (Wistar strain, weighing 150-200 g each) were used. The test compounds were solubilized in N,N-dimethylformamide, acetic acid, ethanol or hydrochloric acid.
Whole cortex of rats was homogenized gently in 20 volumes of ice-cold 0.32 M sucrose, centrifuged twice at 1000 g for 10 minutes and then recentrifuged at 30,000 g for 20 minutes to produce a crude P2 -synaptosomal fraction. The P2 -fraction was either: (1) resuspended in twice the original volume in hypotonic 50 mM Tris.HCl(pH 7.4), or (2) resuspended in one-half of the original volume in hypotonic 10 mM Tris.HCL (pH 7.4) and frozen (-20° C.) until time of use. Frozen P2 preparations were thawed and resuspended in four times the original homogenizing volume at time of assay.
The binding assay consisted of 300 l of the P2 -fraction suspension (0.2-0.4 mg protein), 100 l of test drug and 100 l of 3H-diazepam 91.5 nM, final concentration) or 3H-flunitrazepam (1.0 nM, final concentration )which was added to 1.5 l of 50 mM Tris.HCl (pH 7.4). Non-specific binding controls and total binding controls received […] of diazepam ([…] final concentration) and 100 l of deionized water, respectively, in place of the test compound. Incubation for 30 minutes proceeded in ice and was terminated by filtration, under vacuum, through glass fiber filters. The filters were washed twice with 5 ml of ice-cold 50 mM Tris.HCl (pH 7.4) and placed in scintillation vials. After drying at 50°-60° C. for 30 minutes, 10 ml of diluent was added and the radioactivity determined in a scintillation counter.
Inhibition of binding was calculated by the difference between total binding and binding in the presence of test compound, divided by the total, times 100. Physiological activity can be shown by a test compound that inhibits 3H-benzodiazepine binding by 12 percent or more.

[3] = Mean arterial blood pressure in spontaneously hypertensive rats; type: in vivo, spontaneously hypertensive rats of the Okamoto strain; conditions: gavage, 100 mg/kg or less, two doses 24 h apart, measured at 28 h; average MABP of rats 160±1.5
Experimental: Certain of the novel compounds of the present invention are active hypotensive agents at non-toxic doses when administered to mammals. These compounds were tested for hypotensive activity by the method of P. S. Chan and D. W. Poorvin, Clinical and Experimental Hypertension, 1 (6), […] (1979). Male, 16 week old spontaneously hypertensive rats of the Okamoto strain having an average mean arterial blood pressure of 160±1.5 mm of mercury are used in the test. One to three rats are used per test compound. A rat is dosed by gavage with a test compound, suspended in 2 percent pre-boiled starch at a concentration of50 mg/ml, at a dose of 100 mg/kg of body weight or less, with 0.9 percent sodium chloride loading at a dose of 25 ml/kg of body weight. A second identical dose of the test compound, without sodium chloride loading is given 24 hours later. At 28 hours after the initial dose the mean arterial blood pressure is measured by the method of Chan and Poorvin vide supra. The procedure is repeated in a second and third rat when necessary.

[4] = Protection against clonic seizures caused by pentylenetetrazole; type: in vivo, rats; conditions: orally or intraperitoneally, pentylenetetrazole 23 mg/kg i.v. at 30 or 60 min
Experimental: The anti-anxiety properties of the novel compounds of the present invention have been established in a test which indicates anxiolytic activity by the measure of protection from convulsions resulting from the administration of pentylenetetrazole. Single or graded dose levels of the test compounds were administered orally or intraperitoneally in a 2 percent starch vehicle containing 0.5 percent v/v polyethylene glycol and one drop of Polysorbate 80, or distilled water and one drop of Polysorbate 80 to groups of at least four rats. At 30 or 60 minutes, the rats were treated intravenously with pentylenetetrazole at a dose of 23 mg/kg of body weight. This dose is estimated to cause clonic seizures in 99 percent of unprotected rats. The test compounds are considered active if they protect 50 percent or more of the rats from clonic seizures.
It has been reported (R. T. Hill and D. H. Tedeschi, "Animal Testing and Screening Procedures in Evaluating Psychotropic Drugs" in "An Introduction to Psychopharmacology", pp 237-288 (Eds. R. R. Rech and K. E. Moore, Raven Press, New York, 1971)) that there is a high degree of correlation between antagonism of pentylenetetrazole seizures in rats and anti-anxiety effects in higher warm-blooded animals.

Hypoxic Survival Test = type: in vivo, Royal Hart mice; conditions: for % Survivors: 30 min before hypoxia, survival after 5 min
Experimental: A useful in vivo test that measures how effectively central nervous system-acting drugs enhance survival in an hypoxic environment, presumably by improving the ratio of energy supply to demand is known as the Hypoxic Survival Test. […] Drugs are tested by intraperitoneally injecting groups of mice 30 minutes prior to placing them in hypoxic mixture and measuring survival. The rationale of this test is that drugs which enhance survival under hypoxic conditions without concomitant, depression or sedative side effects, may do so by enhancing energy metabolism, or by preserving normal brain function under conditions of reduced energy metabolism. Given the dependence of the brain on a constant supply of energy, drugs which have this property may have many far-reaching therapeutic indications, including recovery from stroke and closed head injury, as well as reducing the deleterious effects of the aging central nervous system. […]
A separate group of 20 mice is injected intraperitoneally with saline solution (0.01 cc/g of body weight) and processed as described above.
Still another group of 20 mice is injected intraperitoneally with 0.125 mg/kg of physostigmine and processed as described above.

[5] = Conflict procedure (non-conditioned passive avoidance); type: in vivo, Wistar strain rats; conditions: 25 mg/kg oral, 60 min before test
Experimental: Another test used to assess anti-anxiety effects is a non-conditioned passive avoidance procedure described by J. R. Vogel, G. Beer and D. E. Clody, "A Simple and Reliable Conflict Procedure for Testing Antianxiety Agents", Psychopharmacologia, 21, 1-7 (1971). A conflict situation was induced in rats by a modification of this method.
Groups of 8 naive, Wistar strain rats, weighing 200-240 g each, were deprived of water for 48 hours. The test compounds were administered in single or graded, oral doses, suspended in 2 percent starch with […] polyethylene glycol in distilled water and one drop of Polysorbate 80. Control animals received the vehicle alone. At 60 minutes each rat was placed in an individual clear plastic chamber. Tap water was available ad libitum from a nipple located in a black box off the main chamber. A 0.7 milliampere AC shocking current was established between the stainless steel grid floor and the tap. After 20 licks of non-shocked drinking, a 2 second shocking current was administered to the rat. This ratio of 20 licks of non-shocked drinking followed by a 2 second shock was continued for a total of 3 minutes. The number of shocks taken by each rat during the 3 minute interval was recorded and compared to a control group. […]

With CC(=NC(=O)c1cnn2c(-c3cccnc3)ccnc12)N(C)C [N-((Dimethylamino)ethylidene)-7-(3-pyridinyl)pyrazolo(1,5-a)pyrimidine 3-carboxamide] the “% Improvement” value ([1]; 25 mg/kg i.p.) was 53% and the “% Improvement” value ([1]; 50 mg/kg i.p.) was 46%.

In the case of CN(C)C=NC(=O)c1cnn2c1NCC=C2c1cccnc1 [N-((Dimethylamino)methylene)4,5-dihydro-7-(3-pyridinyl)pyrazolo(1,5-a)pyrimidine-3-carboxamide], the “% Inhibition” value [2] was 32%, the “% Improvement” value ([1]; 50 mg/kg i.p.) was 66% and the “% Improvement” value ([1]; 100 mg/kg i.p.) was 54%. For the same compound, the “MABP/mmHg (no. of rat)” value [3] was 113 mmHg.

In the case of Cc1cccc(-c2ccnc3c(C(=O)N=CN(C)C)cnn23)c1 [N-((Dimethylamino)methylene) 7-(3-methylphenyl)pyrazolo(1,5-a)pyrimidine-3-carboxamide], the “% of Rats Protected” value ([4]; 50 mg/kg) was 50% and the “% Inhibition” value [2] was 65%.

In the case of Cc1cc(-c2ccccc2)n2nc(C)c(C(=O)N=CN(C)C)c2n1 [N-((Dimethylamino)methylene)-2,5-dimethyl-7-phenylpyrazolo(1,5-a)pyrimidine-3-carboxamide], the “% Survivors” value (Hypoxic Survival Test; 100 mg/kg i.p.) was 42%.

For Cc1nn2c(-c3ccncc3)ccnc2c1C(=O)N=CN(C)C [N-((Dimethylamino)methylene)-2-methyl-7-(4-pyridinyl)pyrazolo(1,5-a)pyrimidine-3-carboxamide], the “% Survivors” value (Hypoxic Survival Test; 10 mg/kg i.p.) was 55% and the “MABP/mmHg (no. of rat)” value [3] was 130 mmHg.

In the case of Cc1nn2c(-c3ccccc3)ccnc2c1C(=O)N=CN(C)C [N-((Dimethylamino)methylene)-2-methyl-7-phenylpyrazolo(1,5-a)pyrimidine-3-carboxamide], the “% Inhibition” value [2] was 18%, the “% Improvement” value ([1]; 5 mg/kg i.p.) was 49% and the “% Improvement” value ([1]; 10 mg/kg i.p.) was 37%. For the same compound, the “% Improvement” value ([1]; 25 mg/kg i.p.) was 66%, the “% Improvement” value ([1]; 50 mg/kg i.p.) was 66% and the “% Survivors” value (Hypoxic Survival Test; 0.1 mg/kg i.p.) was 45%. For the same compound, the “% Survivors” value (Hypoxic Survival Test; 10 mg/kg i.p.) was 100%, the “% Survivors” value (Hypoxic Survival Test; 100 mg/kg i.p.) was 97% and the “% Survivors” value (Hypoxic Survival Test; 200 mg/kg i.p.) was 95%.

For CN(C)C=NC(=O)c1cnn2c1NCC=C2c1cccc(C(F)(F)F)c1 [N-((Dimethylamino)methylene)-4,5-dihydro-7-(3-(trifluoromethyl)phenylpyrazolo(1,5-a)-pyrimidine-3-carboxamide], the “% of Rats Protected” value ([4]; 12.5 mg/kg) was 88%, the “% of Rats Protected” value ([4]; 25 mg/kg) was 75% and 88% and the “% Inhibition” value [2] was 17%. The “% Improvement” value ([1]; 25 mg/kg i.p.) was 49%, the “% Improvement” value ([1]; 50 mg/kg i.p.) was 57% and the “% Survivors” value (Hypoxic Survival Test; 50 mg/kg i.p.) was 75%. The “% Survivors” value (Hypoxic Survival Test; 100 mg/kg i.p.) was 57%, the “MABP/mmHg (no. of rat)” value [3] was 131 mmHg and the “Result (no. of shocks per 3 min.)” value [5] was 22.9 no. of shocks per 3 min.

For Cc1cnc2c(C(=O)N=CN(C)C)cnn2c1 [N-((Dimethylamino)methylene)-6-methyl-pyrazolo(1,5-a)pyrimidine-3-carboxamide], the “% Survivors” value (Hypoxic Survival Test; 10 mg/kg i.p.) was 42%, the “% Survivors” value (Hypoxic Survival Test; 50 mg/kg i.p.) was 40% and the “% Survivors” value (Hypoxic Survival Test; 100 mg/kg i.p.) was 62%. The “% Survivors” value (Hypoxic Survival Test; 200 mg/kg i.p.) was 45%.

For CN(C)C=NC(=O)c1cnn2c(-c3cccnc3)ccnc12 [N-((Dimethylamino)methylene)-7-(3-pyridinyl)-pyrazolo(1,5-a)pyrimidine-3-carboxamide], the “% Improvement” value ([1]; 25 mg/kg i.p.) was 33%, the “% Improvement” value ([1]; 50 mg/kg i.p.) was 33% and the “% Survivors” value (Hypoxic Survival Test; 25 mg/kg i.p.) was 80% and 58% and 42%.

With CN(C)C=NC(=O)c1cnn2c(-c3cccc(C(F)(F)F)c3)ccnc12 [N-((Dimethylamino)methylene)-7-(3-trifluoromethyl)phenyl)pyrazolo(1,5-a)pyrimidine-3-carboxamide] the “% Inhibition” value [2] was 82%.

For CN(C)C=NC(=O)c1cnn2c(-c3ccccc3)ccnc12 [N-((Dimethylamino)methylene)-7-phenylpyrazolo(1,5-a)-pyrimidine-3-carboxamide], the “% Inhibition” value [2] was 28%.

In the case of CNC(=O)Oc1ccc2c(c1)[C@]1(C)CCN(C)[C@@H]1N2C [physostigmine, reference compound], the “percent of physostigmine treated mice that survive” value (Hypoxic Survival Test; 10 percent oxygen, after 5 minutes, control mice 5-20 percent, dose 0.125 mg/kg i.p.) was 60-80%.
